According to patent US4481197A, “Anti-inflammatory deoxyribosides” (Burroughs Wellcome Co., priority 1982, dated 1984):

Legend:
[1] = tested on: microbial purine nucleoside phosphorylase; conditions: Doskocil and Holy 1977; cited from earlier work
[2] = tested on: mouse neutrophil chemotaxis; assay: Mouse neutrophil chemotaxis; assay type: cell-based
Analgesic activity = conditions: in vivo
[3] = tested on: carrageenan pleurisy (3 hour exudate volume); assay: Carrageenan Pleurisy Assay (CPA), acute anti-inflammatory activity; assay type: in vivo; conditions: statement in words
Procedure: Following the procedure described by Vinegar et al in Proc. Soc. Exp. Biol. Med.,143, 711, (1973), and recently modified (Vinegar et al., Eur. J. Rheum. Inflam. 1, 204 (1978)) the acute anti-inflammatory activity of 4-amino-1-(2-deoxy-β-D-ribofuranosyl)-1H-imidazo-[4,5-c]-pyridine was compared with that of known anti-inflammatory drugs. The average 3 hour exudate volume for each drug-treated group was determined and the % inhibition relative to solvent-fed control animals calculated, the ED50 (mg/kg of body weight) being the dose required to reduce the 3 hour exudate volume by 50%. There were 5 animals in each drug-treated group and the control group.

inflammation = assay: Anti-inflammatory effectiveness by route; assay type: in vivo; conditions: orally, systemically and locally
[4] = Side effects / liver damage in animal models; conditions: in vivo

OC[C@H]1O[C@@H](n2ccc3c(O)ncnc32)[C@H](O)[C@@H]1O [7-deazainosine]
substrate for microbial purine nucleoside phosphorylase [1]: not to be substrates

Nc1ncnc2c1ccn2[C@@H]1O[C@H](CO)[C@@H](O)[C@H]1O [7-deazaadenosine]
substrate for microbial purine nucleoside phosphorylase [1]: not to be substrates

Nc1nc2c(nnn2[C@@H]2O[C@H](CO)[C@@H](O)[C@H]2O)c(=O)[nH]1 [S-azaguanosine]
substrate for microbial purine nucleoside phosphorylase [1]: not to be substrates

Nc1nccc2c1ncn2[C@H]1C[C@H](O)[C@@H](CO)O1 [4-amino-1-(2-deoxy-β-D-ribofuranosyl)-1H-imidazo-[4,5-c]-pyridine]
inhibition of mouse neutrophil chemotaxis [2]: potent inhibitor | analgesic activity per se (Analgesic activity): no analgesic activity per se | inhibition of carrageenan-induced pleurisy [3]: potent inhibitor | effectiveness as anti-inflammatory agent (inflammation): effective | side effects associated with prostaglandin inhibitors (gastric damage, inhibition of platelet aggregation) [4]: free of the side effects | side effects of the anti-inflammatory steroids [4]: free of the side effects
